{"source": "ChEMBL document CHEMBL1649268", "about": "“Comparative in vitro activity profile of oritavancin against recent gram-positive clinical isolates” (2009)", "test_system": "Streptococcus", "assay": "Antimicrobial activity against erythromycin-susceptible Streptococcus Group F clinical isolates assessed as resistant isolates by broth microdilution method", "assay_type": "functional", "data": [{"smiles": "CCC[C@@H]1C[C@@H](C(=O)N[C@@H]([C@H]2O[C@H](SC)[C@H](O)[C@@H](O)[C@H]2O)[C@H](C)Cl)N(C)C1", "note": "[CLINDAMYCIN]", "values": [{"measurement": "Activity", "value": 0, "unit": "%"}]}]}
